“Also recorded” adds a separate entry of the source. Like-named read-outs stand apart in the source and are kept apart here.
Assays:
SARS-CoV-2 = assay: microbe, parasite or virus in culture; format: cell-based, SARS-CoV-2 (strain 2019-nCoV/USA_WA1/2020)
Cytotoxicity = format: cell-based
SARS-CoV 3CLpro = SARS-CoV 3CLpro (Severe acute respiratory syndrome coronavirus, UniProt P0C6X7); format: biochemical
SARS-CoV = conditions: cited from earlier work
3CLpro = conditions: read-out: reported IC50; reported value, no reference given; cited from earlier work
[1] = Severe acute respiratory syndrome coronavirus 2, 48 h

With O=C(Nc1ccc(F)c(F)c1)c1cc(Cl)ccc1O [JMX0321] the EC50 (SARS-CoV-2) was 1.19 µM.

Compound Cl.NCCOc1ccc(Cl)cc1C(=O)NCC(=O)Nc1ccc([N+](=O)[O-])cc1Cl [JMX0286, 2-(2-Aminoethoxy)-5-chloro-N-(2-((2-chloro-4-nitrophenyl)amino)-2-oxoethyl)benzamide hydrochloride] has an EC50 (SARS-CoV-2; [1]) of 2.25 µM and a CC50 at 48 h (Cytotoxicity) of 3.78 µM.

In the case of O=C(Nc1ccc([N+](=O)[O-])cc1Cl)c1cccc([N+](=O)[O-])c1O [JMX0207], the EC50 (SARS-CoV-2) is reported as 1.22 µM.

With CC(C)[C@H](NC(=O)c1cc(Cl)ccc1O)C(=O)Nc1cc(C(F)(F)F)cc(C(F)(F)F)c1 [JMX0679] the EC50 (SARS-CoV-2) was 2.51 µM.

Work on CC(C)C[C@H](NC(=O)c1cc(Cl)ccc1O)C(=O)Nc1ccc([N+](=O)[O-])cc1Cl [JMX0671] yielded an EC50 (SARS-CoV-2) of 1.56 µM.

In the case of CC(C)(C)NC(=O)N[C@H](C(=O)N1C[C@H]2[C@@H]([C@H]1C(=O)NC(CC1CCC1)C(=O)C(N)=O)C2(C)C)C(C)(C)C (stereo partly drawn) [Boceprevir, boceprevir, reference compound], the EC50 (SARS-CoV-2; Severe acute respiratory syndrome coronavirus 2, read-out: SARS-CoV-2 3CLpro EC50, Table 2, cell-based antiviral assay, SARS-CoV-2 viral replication) is reported as 15.6 µM.

CC(C)[C@H](NC(=O)c1cc(Cl)ccc1O)C(=O)Nc1ccc([N+](=O)[O-])cc1Cl [JMX0281] gave an EC50 (SARS-CoV-2) of 2.08 µM.

For O=C(Nc1ccc([N+](=O)[O-])cc1Cl)c1cc(Cl)ccc1O [niclosamide], the “Inhibitory activity against SARS-CoV 3CLpro” value (SARS-CoV 3CLpro) is given as “does not inhibit; also recorded: no obvious inhibitory activity”, the “Concentration suppressing the cytopathic effect (CPE) of SARS-CoV” value (SARS-CoV) is given as 1 µM and the EC50 (SARS-CoV; read-out: EC50 of SARS-CoV replication) is given as under 0.1 µM.

Work on O=C(Nc1ccc(C(F)(F)F)cc1Cl)c1cccc([N+](=O)[O-])c1O [JMX0310, N-(2-Chloro-4-(trifluoromethyl)phenyl)-2-hydroxy-3-nitrobenzamide] yielded an EC50 (SARS-CoV-2; [1]) of 2.41 µM and a CC50 at 48 h (Cytotoxicity) of 10.1 µM.

In the case of CC(C)[C@H](NC(=O)c1cc(Cl)ccc1O)C(=O)Nc1ccc(C(F)(F)F)cc1Cl [JMX0672], the EC50 (SARS-CoV-2) is reported as 1.92 µM.

In the case of CC(C)(C)OC(=O)NCCOc1ccc(Cl)cc1C(=O)NCC(=O)Nc1ccc([N+](=O)[O-])cc1Cl [JMX0301, Tert-Butyl (2-(4-chloro-2-((2-((2-chloro-4-nitrophenyl)amino)-2-oxoethyl)carbamoyl)phenoxy)ethyl)carbamate], the “SARS-CoV-2 3CLpro EC50” value (SARS-CoV-2; Table 2, cell-based antiviral assay, SARS-CoV-2 viral replication) is reported as “No Dose response”.

For O=C(Nc1cc(F)cc(C(F)(F)F)c1)c1cc(Cl)ccc1O [JMX0312], the EC50 (SARS-CoV-2) was 1.13 µM.

In the case of CC(C)(C)NC(=O)[C@@H](c1cccnc1)N(C(=O)c1ccco1)c1ccc(C(C)(C)C)cc1 [ML-188], the IC50 (3CLpro) is given as about 2 µM.

In the case of CCC(C)[C@H](NC(=O)c1cc(Cl)ccc1O)C(=O)Nc1ccc([N+](=O)[O-])cc1Cl (stereo partly drawn) [JMX0673], the EC50 (SARS-CoV-2) is reported as 1.74 µM.

Compound CC(C)[C@H](NC(=O)c1cc(Cl)ccc1O)C(=O)Nc1cc(F)cc(C(F)(F)F)c1 [JMX0680] has an EC50 (SARS-CoV-2) of 4.57 µM.

Compound O=C(Nc1cc(F)cc(C(F)(F)F)c1)c1cccc([N+](=O)[O-])c1O [JMX0317, N-(3-Fluoro-5-(trifluoromethyl)phenyl)-2-hydroxy-3-nitrobenzamide] has an EC50 (SARS-CoV-2; [1]) of 4.03 µM and a CC50 at 48 h (Cytotoxicity) of 11.7 µM.

C[C@H](NC(=O)c1cc(Cl)ccc1O)C(=O)Nc1ccc([N+](=O)[O-])cc1Cl [JMX0674] showed an EC50 (SARS-CoV-2) of 9.75 µM.

For O=C(Nc1cc(C(F)(F)F)cc(C(F)(F)F)c1)c1cccc([N+](=O)[O-])c1O [JMX0330, N-(3,5-Bis(trifluoromethyl)phenyl)-2-hydroxy-3-nitrobenzamide], the EC50 (SARS-CoV-2; [1]) was 0.498 µM, the EC50 (SARS-CoV-2; listed as JMX0320) was “sub-micromolar” and the CC50 at 48 h (Cytotoxicity) was 10.2 µM.

Compound CC(C)[C@H](NC(=O)c1cc(Cl)ccc1O)C(=O)Nc1ccc(F)c(F)c1 [JMX0681] has an EC50 (SARS-CoV-2) of 9.75 µM.

With O=C(NC(Cc1ccccc1)C(=O)Nc1ccc([N+](=O)[O-])cc1Cl)c1cc(Cl)ccc1O (stereo not drawn) [JMX0285] the EC50 (SARS-CoV-2) was 3.03 µM.
